Source: PubChem BioAssay (NCI)
Values joined by “and” are separate entries in the source; they are usually repeats but may differ in a detail not shown here. Equal entries are not always repeated.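 Test compounds were applied to cells in 96-well plates for 48 hours at 5 doses. Abbreviation: GI50, concentration required for 50% inhibition of growth. TGI: concentration producing complete growth inhibition.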

What was measured:
Assay in all cases: growth of human tumour cells (NCI), 48 h
[1] = system: CAKI-1 renal
[2] = system: HCT-116 colon
[3] = system: HL-60(TB) leukemia
[4] = system: HS 578T breast
[5] = system: MDA-MB-435
[6] = system: MOLT-4 leukemia
[7] = system: NCI-H460 lung
[8] = system: PC-3 prostate
[9] = system: RPMI-8226 leukemia
[10] = system: SW-620 colon

| SMILES | GI50 [1] | TGI [1] | GI50 [2] | TGI [2] | GI50 [3] | TGI [3] | GI50 [4] | TGI [4] | GI50 [5] | TGI [5] | GI50 [6] | TGI [6] | GI50 [7] | TGI [7] | GI50 [8] | TGI [8] | GI50 [9] | TGI [9] | GI50 [10] | TGI [10] |
| --- | --- | --- | --- | --- | --- | --- | --- | --- | --- | --- | --- | --- | --- | --- | --- | --- | --- | --- | --- | --- |
| COCCn1c2c([n+](Cc3cnccn3)c1C)C(=O)c1ccccc1C2=O | 2.72 µM | > 100 µM | < 0.01 µM | 0.0106 µM | < 0.01 µM | < 0.01 µM | 0.302 µM | 10.7 µM | < 0.01 µM | < 0.01 µM | < 0.01 µM | 0.034 µM | 0.0208 µM | 0.112 µM | < 0.01 µM | 0.0359 µM | < 0.01 µM | < 0.0114 µM | < 0.01 µM | 0.0176 µM |
| Nc1cc(N)c2nc(NCCc3ccc(Cl)c(Cl)c3)cnc2c1 | 4.89 µM | 18.2 µM | 3.7 µM | 15.1 µM | 2.15 µM | 4.88 µM | 23.5 µM | 56.9 µM | 3.96 µM | 13.6 µM | 2.5 µM | 8.22 µM | 15.4 µM | 35 µM | 9.32 µM | 21.3 µM | 2.54 µM | 7.81 µM | 16.2 µM | 32 µM |
| COC(=O)c1cccc(NC(=O)c2ccc(NC3=C(Cl)C(=O)N(Cc4ccccc4)C3=O)cc2)c1 | 1.72 µM | 3.14 µM | 3.49 µM | 14.9 µM | 16.8 µM | 38.8 µM | 22 µM | 69.4 µM | 14.3 µM | 34.2 µM | 12.5 µM | 56.5 µM | 30.2 µM | 84.6 µM | 15.1 µM | 28.3 µM | 10.7 µM | 23.9 µM | 22.3 µM | 86.5 µM |
| CC[C@@H](C)/C=C(C)/C=C/C(=O)c1c(O)c(-c2ccc(O)cc2)cn(OC2CC(=O)CCC(C)OC(=O)CC2O)c1=O (some centres not stated) | 0.361 µM | 3 µM | 0.272 µM | 13 µM | 0.212 µM | 2.86 µM | 2.36 µM | > 67.2 µM | 0.485 µM | 19 µM | 0.225 µM | 12.1 µM | 0.267 µM | 2.99 µM | 5.62 µM | > 91.5 µM | 0.463 µM | 22.9 µM | 0.562 µM | 16.4 µM |
| COc1cc2c(cc1-c1coc3cc(O)ccc3c1=O)OCO2 | – | 51.1 µM | – | 37.1 µM | – | > 100 µM | – | 58.2 µM | – | > 100 µM | – | > 100 µM | – | 32 µM | – | > 100 µM | – | 77.5 µM | – | > 100 µM |
| CN1CCN(CCC=C2c3ccccc3Sc3ccc(S(=O)(=O)N(C)C)cc32)CC1 | 3.45 µM and 5.41 µM | 20.6 µM and 23.9 µM | 3 µM and 3.35 µM | > 100 µM and 23.8 µM | 2.38 µM and 2.41 µM | 4.65 µM | 3.4 µM and 3 µM | 23.2 µM and 14.8 µM | 1.89 µM and 2.08 µM | 4.28 µM and 5.82 µM | 2.91 µM and 2.22 µM | 7.95 µM and 7.1 µM | 3.51 µM and 3.47 µM | 14.8 µM and 14 µM | 3.7 µM and 7.99 µM | 32.5 µM and > 43.1 µM | 2.33 µM and 2.6 µM | 6.55 µM and 8.62 µM | 3.58 µM and 2.85 µM | 19.9 µM and 8.62 µM |
| O=C(CN1CCN(C(=O)c2ccco2)CC1)Nc1ccc(Cl)cc1C(=O)c1ccccc1Cl | 0.0273 µM | 6.42 µM | 13 µM | 26.9 µM | 1.31 µM | 2.95 µM | 10.8 µM | 33 µM | 5.83 µM | 20.6 µM | 2.14 µM | 5.44 µM | 13.9 µM | 29 µM | 2.75 µM | 16.3 µM | 1.33 µM | 12.1 µM | 12 µM | 30.6 µM |
| COc1ccc(/C=C\c2cc(OC)c(OC)c(OC)c2)c(NS(=O)(=O)c2ccc(F)cc2)c1O | 0.115 µM | > 100 µM | 0.0428 µM | > 100 µM | 0.032 µM | 23.8 µM | 0.113 µM | > 100 µM | 0.0204 µM | 0.0515 µM | 0.0466 µM | > 100 µM | 0.0419 µM | 26.1 µM | 0.0428 µM | > 70.8 µM | 0.0448 µM | 18.9 µM | 0.0434 µM | > 100 µM |
| O=C(N/N=C/c1ccncc1)c1ccc(F)cc1 | > 40 µM | > 40 µM | > 40 µM | > 40 µM | > 40 µM | > 40 µM | > 40 µM | > 40 µM | > 40 µM | > 40 µM | > 40 µM | > 40 µM | > 40 µM | > 40 µM | > 40 µM | > 40 µM | > 40 µM | > 40 µM | > 40 µM | > 40 µM |
| Cc1cc(C)c2c(c1)N(C)c1ncnc(-n3cnc4cc(C)ccc43)c1CC2C (configuration not stated) | 3.37 µM | 70.2 µM | 3.08 µM | 14.6 µM | 2.46 µM | 9.36 µM | 3 µM | 31 µM | 2.44 µM | 10.6 µM | 2.46 µM | 9.57 µM | 3.4 µM | 11.4 µM | 2.25 µM | 14.8 µM | 2.59 µM | 9.08 µM | 4.1 µM | 64.1 µM |
| C[C@]12CC[C@H]3[C@@H](CC[C@]4(O)C[C@@H](O[C@@H]5O[C@H](CO)[C@@H](O[C@@H]6OC[C@@H](O)[C@H](O)[C@H]6O)[C@H](O)[C@H]5O)CC[C@]34C=O)[C@@]1(O)CC[C@@H]2C1=CC(=O)OC1 | 0.886 µM | 2.26 µM | 1.47 µM | 5.77 µM | 1.12 µM | 3.08 µM | 0.845 µM | 4.31 µM | 1.71 µM | 6.17 µM | 0.302 µM | 1.82 µM | 0.379 µM | 1.31 µM | 0.78 µM | 3.57 µM | 1.9 µM | 14.6 µM | 1.35 µM | 4.67 µM |
| CC(=O)N[C@@H](Cc1ccc(OP(=O)(O)O)cc1)C(=O)N[C@H]1CCC(=O)N2CCC[C@@H](C(=O)NC3CCc4ccccc43)N2C1=O (some centres not stated) | > 25 µM | > 25 µM | > 25 µM | > 25 µM | > 25 µM | > 25 µM | > 25 µM | > 25 µM | > 25 µM | > 25 µM | > 25 µM | > 25 µM | > 25 µM | > 25 µM | > 25 µM | > 25 µM | > 25 µM | > 25 µM | > 25 µM | > 25 µM |
| CCOc1ccc2c(c1)C(=O)c1c-2n(CCCN=[N+]=[N-])c(=O)c2cc([N+](=O)[O-])ccc12 | 5.71 µM | 89.2 µM | 1.82 µM | > 100 µM | 28.5 µM | > 100 µM | 45.9 µM | > 100 µM | 39.4 µM | > 100 µM | 1.96 µM | 20.8 µM | 0.284 µM | 10.7 µM | 15.1 µM | > 100 µM | 2.25 µM | 31 µM | 3.42 µM | > 100 µM |
| Cn1c(=O)c(Oc2ccc(F)cc2F)cc2cnc(NCC(C)(C)O)nc21 | > 25 µM | > 25 µM | > 25 µM | > 25 µM | > 25 µM | > 25 µM | > 25 µM | > 25 µM | > 25 µM | > 25 µM | > 25 µM | > 25 µM | > 25 µM | > 25 µM | > 25 µM | > 25 µM | > 25 µM | > 25 µM | > 25 µM | > 25 µM |
| CCC(C)C1NC(=O)C(NC(=O)C(CC(C)C)N(C)C(=O)[C@@H]2CC(O)CN2C(=O)[C@H](C)O)C(C)OC(=O)[C@H](Cc2ccc(OC)cc2)N(C)C(=O)[C@@H]2CCCN2C(=O)[C@H](CC(C)C)NC(=O)C(C)C(=O)[C@H](C(C)C)OC(=O)CC1O (some centres not stated) | 0.229 µM | 2.99 µM | < 0.01 µM | 1.01 µM and 1.6 µM | 0.154 µM | 2.03 µM | < 0.01 µM | 0.283 µM and 0.0317 µM | 0.0365 µM | 0.705 µM and 0.41 µM | 0.0142 µM | – | 0.019 µM | 1.16 µM and 1.4 µM | 0.0603 µM | 1.83 µM and 0.416 µM | 0.0695 µM | 1.77 µM | 0.0581 µM | 2.3 µM and 0.919 µM |
| Cc1cc(-c2cc(OC(=O)c3ccccc3)ccc2Cl)cc2nnc(Nc3ccc(OCCN4CCCC4)cc3)nc12 | 1.36 µM | 2.69 µM | 1.59 µM | 3.16 µM | 2.47 µM | 4.69 µM | 1.58 µM | 3.94 µM | 1.62 µM | 3.02 µM | 2.01 µM | 4.74 µM | 1.72 µM | 3.3 µM | 1.16 µM | 2.47 µM | 1.6 µM | 3.63 µM | 0.265 µM | 0.571 µM |
| CO/C(=C1/NC(=O)C(Cc2ccc(O)c(Br)c2)N(C)C(=O)C(C)NC(=O)CCC/C=C(\C)CCC(C)OC1=O)c1ccccc1 (configuration not stated) | 0.0196 µM | 0.0509 µM | < 0.0146 µM | – | 0.033 µM | 0.999 µM | 0.0225 µM | 0.0553 µM | 0.0385 µM | 13.3 µM | 0.119 µM | > 100 µM | – | 3.49 µM | 0.036 µM | 0.595 µM | < 0.0155 µM | 0.0607 µM | 0.0146 µM | 33.3 µM |
| O=C(CCN1CCCN(c2cnc3ccccc3n2)CC1)c1csc2ccccc12 | 17.8 µM | 31.7 µM | 16.5 µM | 30.1 µM | 27.2 µM | 59.7 µM | 20 µM | 51.5 µM | 18.1 µM | 32.2 µM | 26 µM | 57.9 µM | 32.8 µM | > 100 µM | 21.3 µM | 50.6 µM | 12.6 µM | 41.8 µM | 17.4 µM | 33.3 µM |
| O=C(O)c1ccc(/C=N/N=C2c3ccccc3-c3ccccc32)cc1 | – | 93.3 µM | – | > 100 µM | – | > 100 µM | – | 53.1 µM | – | > 100 µM | – | > 100 µM | – | > 100 µM | – | > 100 µM | – | > 100 µM | – | > 100 µM |
| COc1cc(C2CC(c3cccc(Nc4ccnc5cc(Cl)ccc45)c3)=NN2c2ccccc2)cc(OC)c1OC (configuration not stated) | 2.52 µM | > 100 µM | 6.51 µM | > 100 µM | 5.37 µM | > 100 µM | 9.22 µM | > 100 µM | 1.47 µM | 14.2 µM | 7.98 µM | > 100 µM | 3.27 µM | > 100 µM | 1.71 µM | > 100 µM | 5.33 µM | > 100 µM | 2.44 µM | > 100 µM |
| COc1c(B(O)O)cccc1-c1nc2c(F)cc3n[nH]c(C)c3c2c2c1CCCC2 | 0.0106 µM | 0.213 µM | 0.314 µM | > 50 µM | 0.5 µM | > 12.9 µM | 0.118 µM | > 50 µM | 1.86 µM | > 50 µM | 0.272 µM | > 50 µM | 1.28 µM | > 50 µM | 1.46 µM | > 50 µM | 0.655 µM | 4.81 µM | 0.727 µM | > 50 µM |
